Results: patent US8937091B2 (Japan Science and Technology Agency, priority 2009, dated 2015)

Legend:
[1] = test system: IICR (IP3 induced calcium release) in CHO cells; assay: Assay of IICR (IP3 induced calcium release)-inhibiting action; assay type: cell-based, Chinese hamster; conditions: Cricetulus griseus, CHO, CHO cells, 10 μM ATP, read-out: IICR level (percentage of inhibition); for inhibition at 10 µM: test compound 10 μmol; for inhibition at 30 µM: test compound 30 μmol; for inhibition at 100 µM: test compound 100 μmol
Method in brief: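 Inhibition (%) of the intracellular calcium increase triggered by 10 μM ATP, measured in CHO cells in BSS with calcium. Compound given 1 min after the buffer exchange and 2 min before ATP; values reported per compound concentration.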

[2] = test system: SOCE (store operated calcium entry) in CHO cells; assay: Assay of SOCE (store operated calcium entry)-inhibiting action; assay type: cell-based, Chinese hamster; conditions: Cricetulus griseus, CHO, CHO cells, thapsigargin, read-out: SOCE level (percentage of inhibition); for inhibition at 10 µM: test compound 10 μmol; for inhibition at 30 µM: test compound 30 μmol; for inhibition at 100 µM: test compound 100 μmol
Method in brief: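 CHO cells in calcium-free BSS received compound, then 1 μM thapsigargin 2 min later to deplete stores; after 9 min, 2 mM calcium chloride (final) added. Percent inhibition of the rise in intracellular calcium determined at various compound concentrations.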

## CN(CCO)CCC(=O)c1cccnc1 [Example 259, 2-(N-2-hydroxyethylmethyl)aminoethyl-3-pyridylketone]
[1]
  inhibition at 10 µM: 0%
  inhibition at 30 µM: 0%
  inhibition at 100 µM: 20%
[2]
  inhibition at 10 µM: 0%
  inhibition at 30 µM: 0%
  inhibition at 100 µM: 0%

## CCc1nccnc1C(=O)CCN(CCO)CCO [Example 260, 2-(N-bis-hydroxyethyl)aminoethyl-3-ethyl-2-pyrazylketone]
[1]
  inhibition at 10 µM: 20%
  inhibition at 30 µM: 0%
  inhibition at 100 µM: 20%
[2]
  inhibition at 10 µM: 0%
  inhibition at 30 µM: 0%
  inhibition at 100 µM: 0%

## CN(CCO)CCC(=O)c1ccncc1 [Example 262, 2-(N-2-hydroxyethylmethyl)aminoethyl-4-pyridylketone]
[1]
  inhibition at 10 µM: 0%
  inhibition at 30 µM: 0%
  inhibition at 100 µM: 70%
[2]
  inhibition at 10 µM: 0%
  inhibition at 30 µM: 0%
  inhibition at 100 µM: 0%

## Cc1csc(C(=O)CCN(Cc2ccccc2)C(C)C)n1 [Example 263, 2-(N-benzylisopropyl)aminoethyl-4-methyl-2-thiazolylketone]
[1]
  inhibition at 10 µM: 0%
  inhibition at 30 µM: 0%
  inhibition at 100 µM: 70%
[2]
  inhibition at 10 µM: 0%
  inhibition at 30 µM: 0%
  inhibition at 100 µM: 30%

## CCCCN(CCO)CCC(=O)c1nc(C)cs1 [Example 264, 2-(N-butyl-2-hydroxyethyl)aminoethyl-4-methyl-2-thiazolylketone]
[1]
  inhibition at 10 µM: 0%
  inhibition at 30 µM: 0%
  inhibition at 100 µM: 70%
[2]
  inhibition at 10 µM: 0%
  inhibition at 30 µM: 0%
  inhibition at 100 µM: 10%

## Cc1csc(C(=O)CCN(C)Cc2ccccc2)n1 [Example 265, 2-(N-benzylmethyl)aminoethyl-4-methyl-2-thiazolylketone]
[1]
  inhibition at 10 µM: 0%
  inhibition at 30 µM: 0%
  inhibition at 100 µM: 70%
[2]
  inhibition at 10 µM: 10%
  inhibition at 30 µM: 10%
  inhibition at 100 µM: 10%

## CC(C)N(CCC(=O)c1ccc(Cl)s1)Cc1ccccc1 [Example 266, 2-(N-benzylisopropyl)aminoethyl-5-chloro-2-thiophenylketone]
[1]
  inhibition at 10 µM: 0%
  inhibition at 30 µM: 0%
  inhibition at 100 µM: 70%
[2]
  inhibition at 10 µM: 0%
  inhibition at 30 µM: 20%
  inhibition at 100 µM: 40%

## CC(C)N(CCO)CCC(=O)c1ccc(Cl)s1 [Example 267, 2-(N-2-hydroxyethylisopropyl)aminoethyl-5-chloro-2-thiophenylketone]
[1]
  inhibition at 10 µM: 0%
  inhibition at 30 µM: 0%
  inhibition at 100 µM: 70%
[2]
  inhibition at 10 µM: 0%
  inhibition at 30 µM: 0%
  inhibition at 100 µM: 0%

## O=C(CCN(CCO)Cc1ccccc1)c1ccc(Cl)s1 [Example 268, 2-(N-benzyl-2-hydroxyethyl)aminoethyl-5-chloro-2-thiophenylketone]
[1]
  inhibition at 10 µM: 0%
  inhibition at 30 µM: 0%
  inhibition at 100 µM: 70%
[2]
  inhibition at 10 µM: 10%
  inhibition at 30 µM: 0%
  inhibition at 100 µM: 10%

## O=C(CCNCCCO)c1cnccn1 [Example 270, 2-(N-hydroxypropyl)aminoethyl-2-pyrazylketone]
[1]
  inhibition at 10 µM: 20%
  inhibition at 30 µM: 0%
  inhibition at 100 µM: 10%
[2]
  inhibition at 30 µM: 10%
  inhibition at 100 µM: 30%

## O=C(CCNCc1ccccc1)c1ccncc1 [Example 271, 2-(N-benzyl)aminoethyl-4-pyridylketone]
[1]
  inhibition at 10 µM: 10%
  inhibition at 30 µM: 0%
  inhibition at 100 µM: 40%
[2]
  inhibition at 30 µM: 0%
  inhibition at 100 µM: 10%

## O=C(CCNC(c1ccccc1)C(O)c1ccccc1)c1ccco1 (stereo not shown) [Example 272, 2-(N-1,2-diphenyl-2-hydroxyethyl)aminoethyl-2-furylketone]
[1]
  inhibition at 10 µM: 40%
  inhibition at 30 µM: 20%
  inhibition at 100 µM: 20%
[2]
  inhibition at 30 µM: 20%
  inhibition at 100 µM: 40%

## O=C(CCNCCN(CCO)CCC(=O)c1cnccn1)c1cnccn1 [Example 273, N,N-bis(2-pyrazoylethyl)-N-hydroxyethylethylenediamine]
[1]
  inhibition at 10 µM: 40%
  inhibition at 30 µM: 30%
  inhibition at 100 µM: 20%
[2]
  inhibition at 30 µM: 0%
  inhibition at 100 µM: 10%

## O=C(CCNCCO)c1ccco1 [Example 275, 2-(N-2-hydroxyethyl)aminoethyl-2-furylketone]
[1]
  inhibition at 10 µM: 30%
  inhibition at 30 µM: 30%
  inhibition at 100 µM: 30%
[2]
  inhibition at 30 µM: 0%
  inhibition at 100 µM: 0%

## O=C(CCNCCCCNCCC(=O)c1cnccn1)c1cnccn1 [Example 276, N,N-bis(2-pyrazoylethyl)tetramethylenediamine]
[1]
  inhibition at 10 µM: 0%
  inhibition at 30 µM: 0%
  inhibition at 100 µM: 20%
[2]
  inhibition at 30 µM: 0%
  inhibition at 100 µM: 0%

## O=C(CCN(CCO)CCO)c1ccc(Cl)s1 [Example 277, 2-bis(N-2-hydroxyethyl)aminoethyl-5-chloro-2-thienylketone]
[1]
  inhibition at 10 µM: 0%
  inhibition at 30 µM: 0%
  inhibition at 100 µM: 20%
[2]
  inhibition at 30 µM: 0%
  inhibition at 100 µM: 0%

## CCN(CCC(=O)c1ccc(Cl)s1)Cc1ccccc1 [Example 278, 2-(N-ethylbenzyl)aminoethyl-5-chloro-2-thienylketone]
[1]
  inhibition at 10 µM: 30%
  inhibition at 30 µM: 20%
  inhibition at 100 µM: 60%
[2]
  inhibition at 30 µM: 30%
  inhibition at 100 µM: 40%

## CN(CCC(=O)c1ccc(Cl)s1)Cc1ccccc1 [Example 279, 2-(N-methylbenzyl)aminoethyl-5-chloro-2-thienylketone]
[1]
  inhibition at 10 µM: 20%
  inhibition at 30 µM: 0%
  inhibition at 100 µM: 40%
[2]
  inhibition at 30 µM: 30%
  inhibition at 100 µM: 40%

## CC(C)(C)N(CCC(=O)c1ccc(Cl)s1)Cc1ccccc1 [Example 280, 2-(N-t-butylbenzyl)aminoethyl-5-chloro-2-thienylketone]
[1]
  inhibition at 10 µM: 50%
  inhibition at 30 µM: 60%
  inhibition at 100 µM: 70%
[2]
  inhibition at 30 µM: 0%
  inhibition at 100 µM: 30%

## CC(O)CNCCC(=O)c1cnccn1 (stereo not shown) [Example 281, 2-(N-2-hydroxypropyl)aminoethyl-2-pyrazylketone]
[1]
  inhibition at 10 µM: 20%
  inhibition at 30 µM: 20%
  inhibition at 100 µM: 50%
[2]
  inhibition at 30 µM: 0%
  inhibition at 100 µM: 0%

## O=C(CCN1CCCC1CO)c1cnccn1 (stereo not shown) [Example 282, 2-(2-hydroxymethylpyrrolidino)ethyl-2-pyrazylketone]
[1]
  inhibition at 10 µM: 0%
  inhibition at 30 µM: 20%
  inhibition at 100 µM: 50%
[2]
  inhibition at 30 µM: 0%
  inhibition at 100 µM: 0%

## CC(C)N(CCC(=O)c1cc2ccccc2s1)Cc1ccccc1 [Example 283, 2-(N-isopropylbenzyl)aminoethyl-2-benzothienylketone]
[1]
  inhibition at 10 µM: 50%
  inhibition at 30 µM: 80%
  inhibition at 100 µM: 50%
[2]
  inhibition at 30 µM: 0%
  inhibition at 100 µM: 40%

## CC(C)N(CCO)CCC(=O)c1cc2ccccc2s1 [Example 284, 2-(N-isopropyl-2-hydroxyethyl)aminoethyl-2-benzothienylketone]
[1]
  inhibition at 10 µM: 0%
  inhibition at 30 µM: 0%
  inhibition at 100 µM: 40%
[2]
  inhibition at 30 µM: 0%
  inhibition at 100 µM: 0%

## CC(C)(C)N(CCC(=O)c1cc2ccccc2s1)Cc1ccccc1 [Example 285, 2-(N-t-butylbenzyl)aminoethyl-2-benzothienylketone]
[1]
  inhibition at 10 µM: 50%
  inhibition at 30 µM: 80%
  inhibition at 100 µM: 60%
[2]
  inhibition at 30 µM: 0%
  inhibition at 100 µM: 50%

## CCN(CCC(=O)c1nccs1)Cc1ccccc1 [Example 289, 2-(N-ethylbenzyl)aminoethyl-2-thiazolylketone]
[1]
  inhibition at 10 µM: 40%
  inhibition at 30 µM: 80%
  inhibition at 100 µM: 100%
[2]
  inhibition at 30 µM: 0%
  inhibition at 100 µM: 10%

## O=C(CCN(CCO)Cc1ccccc1)c1nccs1 [Example 290, 2-(N-2-hydroxyethylbenzyl)aminoethyl-2-thiazolylketone]
[1]
  inhibition at 10 µM: 40%
  inhibition at 30 µM: 60%
  inhibition at 100 µM: 90%
[2]
  inhibition at 30 µM: 0%
  inhibition at 100 µM: 0%

## CN(CCO)CCC(=O)c1nccs1 [Example 291, 2-(N-2-hydroxyethylmethyl)aminoethyl-2-thiazolylketone]
[1]
  inhibition at 10 µM: 40%
  inhibition at 30 µM: 70%
  inhibition at 100 µM: 100%
[2]
  inhibition at 10 µM: 0%
  inhibition at 30 µM: 0%
  inhibition at 100 µM: 0%

## CC(C)N(CCC(=O)c1ccc(Br)s1)Cc1ccccc1 [Example 292, 2-(N-isopropylbenzyl)aminoethyl-5-bromo-2-thienylketone]
[1]
  inhibition at 10 µM: 50%
  inhibition at 30 µM: 80%
  inhibition at 100 µM: 90%
[2]
  inhibition at 10 µM: 0%
  inhibition at 30 µM: 20%
  inhibition at 100 µM: 40%

## CCCCN(CCO)CCC(=O)c1ccc(Br)s1 [Example 293, 2-(N-2-hydroxyethylbutyl)aminoethyl-5-bromo-2-thienylketone]
[1]
  inhibition at 10 µM: 80%
  inhibition at 30 µM: 50%
  inhibition at 100 µM: 90%
[2]
  inhibition at 10 µM: 0%
  inhibition at 30 µM: 0%
  inhibition at 100 µM: 10%
